What was measured:
NF-κB = test: Luciferase reporter assay and western blot for NF-κB activity; type: cell-based; settings: for TNF-α-dependent NF-κB activation and elevations of NF-κB signaling factors: U937 cells stably expressing the fragment, 10 ng/mL TNF-α for 30 min
Description: After 5 repeated freeze-thaw cycles, cell extracts were cleared by centrifugation at 4° C. Cell extracts were quantified using Bradford assay, and equal amounts of soluble proteins were mixed with SDS sample buffer, boiled, separated by SDS-PAGE, and blotted onto PVDF membranes (Millipore). Membranes were then blocked for 1 h with 5% dry milk in PBST (PBS supplemented with 0.1% Tween-20) buffer and incubated for overnight at 4° C. with primary antibody diluted in PBST containing 1% bovine serum albumin (Sigma). After three washes with PBST, membranes were incubated with HRP-conjugated anti-mouse or anti-rabbit IgG. […] All western blot analyses were performed independently at least three times except that of primary PBMCs.
Luciferase-based NF-κB reporter assay was conducted as previously described (20). A total of 6×10^5 293T or 10^6 suspension U937 Cells in one well of 6-well plates with indicated conditions were transiently transfected with 2 μg of pNF-κB-Luc reporter plasmid for 48 h before harvest. Cells were treated with 10 ng/mL TNF-α (R&D Systems) for 30 min and lysed with 1× passive lysis buffer (Promega). 100 μg of cell lysates was dispensed into a well of 96-well plate, followed by addition of 100 μL of luciferase assay buffer LARII (Promega) and 100 μL of Stop & Glo reagent (Promega). The triplicated chemiluminescence were measured by SpectraMax Paradigm Multi-Mode Plate Reader (Molecular Devices) and normalized to corresponding β-actin level from a parallel western blot analysis of cell lysates. Results were represented as relative luminescence units (RLU) from three independent experiments.

[1] = tested on: AML cell lines HL-60, KG-1, THP-1, and U937; test: WST-1 viability assay, growth of AML lines; type: cell-based; settings: WST-1, time course after TIFA silencing
Description: (§1) To silence specific genes, 6×10^5293T cells or 10^6 suspension cells were transfected with 30 pmol (293T cells) or 50 pmol (suspension cells) of indicated siRNA supplemented with 9 or 15 μL of Lipofectamine RNAiMAX (Invitrogen) in the presence of Opti-MEM (Invitrogen) according to the manufacturer's instruction. Six hours after primary transfection, cells were incubated with the regular medium for 24 h, and the secondary siRNA transfection was performed with the same protocol. Cells or conditional media were collected after 72 h of incubation.
(§2) A total of 10^5 suspension cells under indicated condition were seeded per well in 96-well plates and cell viability was analyzed at the indicated time point post treatment.

[2] = tested on: acute lymphoblastic leukemia (ALL) line Jurkat and CML line K562; test: WST-1 viability assay, proliferation of ALL and CML lines; type: cell-based
Description: as §1, §2

AML PBMCs = test: WST-1 viability and chemosensitivity of freshly isolated AML PBMCs; type: cell-based, human; settings: TIFA silencing
Text: Hela, 293T, and HL-60 cell lines were obtained from Dr. Li-Jung Juan of Academia Sinica (Taipei, Taiwan, 2014), KG-1 cell line was obtained from Prof. Shih-Lan Hsu of Taichung Veterans General Hospital (Taichung, Taiwan, 2015), and the rest of cell lines were obtained from Dr. Shui-Tein Chen of Academia Sinica (Taipei, Taiwan, 2015). All cell lines were expanded and stored in liquid nitrogen when received. Original vials were thawed for these experiments and authenticated simultaneously by STR DNA fingerprinting using the Promega GenePrint® 10 System and analyzed by ABI PRISM 3730 GENETIC ANALYZER and GeneMapper® softeware. All resulting SI R profiles were matched with known ATCC fingerprints (ATCC.org). Maintenance of respective cell lines followed our previous protocols (20,27,28). 293T and HeLa cells were maintained in Dulbecco's modified Eagle's medium (DMEM, Gibco). […] All media were supplemented with 10% decomplemented fetal bovine serum (FBS, Gibco), […] L-glutamine (Gibco), 100 U/mL penicillin (Gibco) and 100 μg/mL streptomycin (Gibco). All cells were incubated in a humidified atmosphere at 37° C. with 5% CO2. To isolate human PBMCs, freshly acquired whole bloods were layered over Ficoll (GE healthcare) as previously described (28). Isolated primary cells were maintained according to a previously described protocol (29) and subjected to experimental analyses within two weeks. […]

U937 cells [3] = test: WST-1 viability of cytarabine-treated U937 cells; type: cell-based; settings: 5 μg/mL etanercept, 50 nM bortezomib, or 1 μM ABT-263 together with 10 μM cytarabine
Description: as §2

J5 (liver cancer cells) = test: WST-1 cytotoxicity of anti-cancer treatments with or without TIFA silencing; type: cell-based; settings: 4th day, Sorafenib 5 μM, Cisplatin 5 μM, Etoposide 10 μM, IR 5Gy
Description: (§3) For transient transfection of 293T cells, 6×10^5 cells were transfected with 2 μg of indicated plasmid DNA using Jet-PEI (Polyplus Transfection) for 48 h (pCDNA3.1 vector, HA-tagged TIFA, and pNF-κB-Luc) or 24 h (Flag-tagged Aurora A) according to the manufacturer's instruction. For transient transfection of U937 cells, 10^6 suspension cells were transfected with 3 μg of the pNF-κB-Luc plasmid DNA using Lipofectamine 2000 (Invitrogen) for 48 h according to the manufacturer's instruction. To silence specific genes, 6×10^5293T cells or 10^6 suspension cells were transfected with 30 pmol (293T cells) or 50 pmol (suspension cells) of indicated siRNA supplemented with 9 or 15 μL of Lipofectamine RNAiMAX (Invitrogen) in the presence of Opti-MEM (Invitrogen) according to the manufacturer's instruction. Six hours after primary transfection, cells were incubated with the regular medium for 24 h, and the secondary siRNA transfection was performed with the same protocol. Cells or conditional media were collected after 72 h of incubation.
as §2
(§4) Cytotoxicity of cells at the 4th day was normalized to treatment without TIFA silencing and presented.

[4] = tested on: MCF-7 (breast cancer cells); test: as above; type: cell-based; settings: 4th day, Sorafenib 5 μM, Cisplatin 5 μM, Etoposide 10 μM, IR 5Gy
Description: as §3, §2, §4

[5] = tested on: MDA-MB-231 (breast cancer cells); test: as above; type: cell-based; settings: 4th day, Sorafenib 5 μM, Cisplatin 5 μM, Etoposide 10 μM, IR 5Gy
Description: as §3, §2, §4

[6] = tested on: NTera2 (testicular embryonic carcinoma); test: as above; type: cell-based; settings: 4th day, Sorafenib 5 μM, Cisplatin 5 μM, Etoposide 10 μM, IR 5Gy
Description: as §3, §2, §4

[7] = tested on: AML lines (HL-60, KG-1, THP-1, U937); test: WST-1 based survival test, IC50 of chemo drugs in AML lines; type: cell-based; settings: all four tested AML lines; siTIFA vs control siRNA
A549 (lung cancer cells) = test: WST-1 cytotoxicity of anti-cancer treatments with or without TIFA silencing; settings: 4th day, Sorafenib 5 μM, Cisplatin 5 μM, Etoposide 10 μM, IR 5Gy
Description: as §3, §2, §4

H446 (lung cancer cells) = test: as above; settings: 4th day, Sorafenib 5 μM, Cisplatin 5 μM, Etoposide 10 μM, IR 5Gy
Description: as §3, §2, §4

[8] = tested on: HeLa (cervical cancer cells); test: as above; settings: 4th day, Sorafenib 5 μM, Cisplatin 5 μM, Etoposide 10 μM, IR 5Gy
Description: as §3, §2, §4

[9] = tested on: HepG2 (liver cancer cells); test: as above; settings: 4th day, Sorafenib 5 μM, Cisplatin 5 μM, Etoposide 10 μM, IR 5Gy
Description: as §3, §2, §4

Jurkat (leukaemia cells) = test: as above; settings: 4th day, Sorafenib 5 μM, Cisplatin 5 μM, Etoposide 10 μM, IR 5Gy
Description: as §3, §2, §4

K562 (leukaemia cells) = test: as above; settings: 4th day, Sorafenib 5 μM, Cisplatin 5 μM, Etoposide 10 μM, IR 5Gy
Description: as §3, §2, §4

THP-1 (leukaemia cells) = test: as above; settings: 4th day, Sorafenib 5 μM, Cisplatin 5 μM, Etoposide 10 μM, IR 5Gy
Description: as §3, §2, §4

[10] = tested on: U2OS (osteosarcoma cells); test: as above; settings: 4th day, Sorafenib 5 μM, Cisplatin 5 μM, Etoposide 10 μM, IR 5Gy
Description: as §3, §2, §4

U937 cells [11] = test: Cytokine antibody array and ELISA of secreted cytokines; type: cell-based; settings: 10 μM cytarabine, conditioned media
Description: Condition media from equal numbers of cultured U937 cells were collected at 72 h post indicated treatments and assessed by the Human Cytokine Array C1 according to the manufacturer's instruction (AAH-CYT-1, RayBiotech). Data were acquired using the ImageJ software and normalized to the positive controls. When indicated, the amounts of secreted cytokines and chemokines in the conditional mediums were determined by the enzyme-linked immunosorbent assay (ELISA) test kit following the manufacturer's instructions (R&D Systems). The absorbances of triplicated samples were read by SpectraMax Paradigm Plate Reader (Molecular Devices).

endogenous TIFA = molecular target: T1, endogenous TIFA (Homo sapiens, UniProt Q96CG3); test: Immunoprecipitation of lysates from transduced U937 cells; type: binding; settings: U937 cells stably expressing Myc-tagged fragment; anti-Myc immunobeads, western blot
T1 construct: endogenous in cells; host or cells: U937 cells (retrovirally transduced with Myc-tagged TIFA fragments)
T1 sequence (Q96CG3 1-184): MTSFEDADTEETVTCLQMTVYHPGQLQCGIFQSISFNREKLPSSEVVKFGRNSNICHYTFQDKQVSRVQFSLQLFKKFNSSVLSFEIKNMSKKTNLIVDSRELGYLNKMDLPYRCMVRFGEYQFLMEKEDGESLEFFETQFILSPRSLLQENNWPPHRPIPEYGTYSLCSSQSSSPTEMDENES

5′-UCAGGACAAACAGGUUUCCCGAGUU-3′ [TIFA siRNA]
elevation of activated NF-κB, phosphorylated IκK and IκB, and NF-κB-driven luciferase activity (NF-κB; overexpression of Aurora A (293T) or TNF-α treatment (U937), silencing of TIFA): negated | growth of AML cell lines [1]: attenuates the growth | cell proliferation [2]: inhibited | growth of AML PBMCs (AML PBMCs; WST-1 time course): growth retardation | chemosensitivities of patient-derived PBMCs (AML PBMCs; chemo drug treatments, WST-1): consistently promoted chemosensitivities

CC1(C)CCC(c2ccc(Cl)cc2)=C(CN2CCN(c3ccc(C(=O)NS(=O)(=O)c4ccc(N[C@H](CCN5CCOCC5)CSc5ccccc5)c(S(=O)(=O)C(F)(F)F)c4)cc3)CC2)C1 [ABT-263]
cytotoxicity of cytarabine-treated U937 cells (U937 cells [3]): enhanced the cytotoxicity

COc1cc([C@@H]2c3cc4c(cc3[C@@H](O[C@@H]3O[C@@H]5CO[C@@H](C)O[C@H]5[C@H](O)[C@H]3O)[C@H]3COC(=O)[C@H]23)OCO4)cc(OC)c1O [Etoposide, etoposide]
fold change of cytotoxicity (cytotoxicity of TIFA silencing/cytotoxicity of non-silencing) (J5 (liver cancer cells)): 1.64 fold changes | fold change of cytotoxicity (cytotoxicity of TIFA silencing/cytotoxicity of non-silencing) [4]: 1.30 fold changes | fold change of cytotoxicity (cytotoxicity of TIFA silencing/cytotoxicity of non-silencing) [5]: 1.46 fold changes | fold change of cytotoxicity (cytotoxicity of TIFA silencing/cytotoxicity of non-silencing) [6]: 1.15 fold changes | decrease in IC50 of the chemo drug under TIFA silencing [7]: ca. 50% | fold change of cytotoxicity (cytotoxicity of TIFA silencing/cytotoxicity of non-silencing) (A549 (lung cancer cells)): 1.77 fold changes | fold change of cytotoxicity (cytotoxicity of TIFA silencing/cytotoxicity of non-silencing) (H446 (lung cancer cells)): 1.27 fold changes | fold change of cytotoxicity (cytotoxicity of TIFA silencing/cytotoxicity of non-silencing) [8]: 1.29 fold changes | fold change of cytotoxicity (cytotoxicity of TIFA silencing/cytotoxicity of non-silencing) [9]: 1.61 fold changes | fold change of cytotoxicity (cytotoxicity of TIFA silencing/cytotoxicity of non-silencing) (Jurkat (leukaemia cells)): 1.79 fold changes | fold change of cytotoxicity (cytotoxicity of TIFA silencing/cytotoxicity of non-silencing) (K562 (leukaemia cells)): 2.28 fold changes | fold change of cytotoxicity (cytotoxicity of TIFA silencing/cytotoxicity of non-silencing) (THP-1 (leukaemia cells)): 1.59 fold changes | fold change of cytotoxicity (cytotoxicity of TIFA silencing/cytotoxicity of non-silencing) [10]: 1.48 fold changes

CNC(=O)c1cc(Oc2ccc(NC(=O)Nc3ccc(Cl)c(C(F)(F)F)c3)cc2)ccn1 [Sorafenib, sorafenib]
fold change of cytotoxicity (cytotoxicity of TIFA silencing/cytotoxicity of non-silencing) [4]: 1.47 fold changes

Cc1cc(Nc2cc(N3CCN(C)CC3)nc(Sc3ccc(NC(=O)C4CC4)cc3)n2)n[nH]1 [VX680]
cell proliferation [2]: inhibited

CC(C)C[C@H](NC(=O)[C@H](Cc1ccccc1)NC(=O)c1cnccn1)B(O)O [bortezomib]
cytotoxicity of cytarabine-treated U937 cells (U937 cells [3]): enhanced the cytotoxicity

Nc1ccn([C@@H]2O[C@H](CO)[C@@H](O)[C@@H]2O)c(=O)n1 [cytarabine]
decrease in IC50 of the chemo drug under TIFA silencing [7]: ca. 50% | secretion of IL-6 (U937 cells [11]): suppressed | secretion of TNF-α, CXCL-1, and IL-8 (U937 cells [11]): promoted

CC(=O)[C@]1(O)Cc2c(O)c3c(c(O)c2[C@@H](O[C@H]2C[C@H](N)[C@H](O)[C@H](C)O2)C1)C(=O)c1ccccc1C3=O [idarubicin]
decrease in IC50 of the chemo drug under TIFA silencing [7]: ca. 50%

etanercept
cytotoxicity of cytarabine-treated U937 cells (U937 cells [3]): enhanced the cytotoxicity

B1: F2F3: dominant-negative TIFA fragment: dimerization-core (F2) plus TRAF6/TRAF2 interacting segment (F3), Myc-tagged, expressed by retroviral transduction (protein)
chain: VVKFGRNSNICHYTFQDKQVSRVQFSLQLFKKFNSSVLSFEIKNMSKKTNLIVDSRELGYLNKMDLPYRCMVRFGEYQFLMEKEDGESLEFFETQFILSPRSLLQENNWPPHRPIPEYGTYSLCSSQSSSPTEMDENES
modifications: left off: small tags and cut ends
TNF-α-dependent NF-κB activation and elevations of NF-κB signaling factors (NF-κB): attenuated | pull down of endogenous TIFA (endogenous TIFA): able to pull down endogenous TIFA

B2: F1F2: dominant-negative TIFA fragment: Thr9 segment (F1) plus dimerization-core (F2), Myc-tagged, expressed by retroviral transduction (protein)
chain: MTSFEDADTEETVTCLQMTVYHPGQLQCGIFQSISFNREKLPSSEVVKFGRNSNICHYTFQDKQVSRVQFSLQLFKKFNSSVLSFEIKNMSKKTNLIVDSREL
modifications: left off: small tags and cut ends
notes: dominant-negative TIFA fragment: Thr9 segment (F1) plus dimerization-core (F2), Myc-tagged, expressed by retroviral transduction
TNF-α-dependent NF-κB activation and elevations of NF-κB signaling factors (NF-κB): attenuated | pull down of endogenous TIFA (endogenous TIFA): able to pull down endogenous TIFA

Reference: patent publication US10322165B2, “TIFA antagonists and their use for treating diseases” (ACADEMIA SINICA, priority 2017, dated 2019)
